The source of these data is article PMC12921516 (ACS Bio & Med Chem Au, 2025).

Assay [1] relates to STZ-induced diabetic CD-1 mice. Nature of the assay: Insulin tolerance test (ITT). In kind it is in vivo. The following applies: single intragastric dose 50 mg/kg, insulin 0.75 IU after 30 min. The protocol:
The studies were carried out on compounds 4b, 4g, and 5g using both normoglycemic CD1 mice and a mouse model of noninsulin-dependent diabetes mellitus (NIDDM). An oral glucose tolerance test (OGTT) was conducted on the normoglycemic mice to evaluate the hypoglycemic activity of the compounds, while an insulin tolerance test (ITT) was performed on hyperglycemic CD1 mice to assess the compounds' capacity to enhance insulin sensitivity in streptozotocin-induced diabetic mice. Pioglitazone and GA were included as positive controls. […] Healthy six-week-old male CD-1 mice, weighing between 30 and 40 g, were maintained at a temperature of 25 ± 2 °C, under a 12-h light/dark cycle and 45-65% humidity throughout the experimental period. The mice were provided with a rodent pelleted diet (Harlan Laboratories, Indianapolis, USA) and had access to water ad libitum. Sixteen hours before the experiment, all mice were fasted but still had free access to water. All animal procedures were conducted in accordance with the Mexican Federal Regulations for Animal Experimentation and Care (SAGARPA, NOM-062-ZOO-1999, Mexico) and received approval from the Institutional Animal Care and Use Committee, following guidelines outlined in the US National Institutes of Health publication (No. 85-23, revised 1985). Streptozotocin (STZ) was dissolved in citrate buffer (pH 4.5), while nicotinamide was dissolved in a normal physiological saline solution. The noninsulin-dependent diabetes (NIDD) mouse model was induced in overnight-fasted mice through a single intraperitoneal injection of STZ (100 mg/kg). Nicotinamide was administered 15 min prior, at a dose of 20 mg/kg via intraperitoneal injection. […] Roche). […] Animals were categorized into five groups, each consisting of four mice (n = 4). The experimental groups received an oral suspension of compounds 4b, 4g, and 5g, prepared in a 10% Tween 20/water solution, at a dosage of 50 mg/kg body weight. A control group was treated with only the 10% Tween 20 solution. The final group was administered pioglitazone at a dose of 45 mg/kg, which is recognized as a reference drug for insulin sensitization. To evaluate glucose levels, blood samples were collected from the tails of the mice at 0, 30, 60, 90, and 120 min after the administration of the vehicle, test compound, or drug. Blood glucose concentration was measured using a commercial glucometer (Accu-Chek, Performa; Roche) and the enzymatic glucose dehydrogenase method. The percentage variation in glycemia was calculated by comparing the selected postadministration glycemia (G x ) with the initial value (G0) using the following formula: %[…]=[(Gx-G0)/G0]×100 where G0 represents the initial glycemia values and Gx indicates the glycemia values at +30, + 60, + 90, and +120 min, respectively. To evaluate the ability of GA derivatives to enhance insulin sensitivity in STZ-induced diabetic CD-1 mice, compounds 4b, 4g, and 5g were tested. Glycyrrhetinic acid (GA) and Pioglitazone served as positive controls. The GA derivatives and the positive controls were administered to the diabetic animals, followed by the administration of human rapid-acting insulin (0.75 IU) after 30 min. Subsequently, glucose levels were measured every 15 min.

For assay [2], the target named is T1, hPTP1B1–400 (Homo sapiens, UniProt P18031).
T1 construct: h PTP1B 1–400 IC 50 (μM ± S.D); made in house
T1 sequence (P18031 1-400): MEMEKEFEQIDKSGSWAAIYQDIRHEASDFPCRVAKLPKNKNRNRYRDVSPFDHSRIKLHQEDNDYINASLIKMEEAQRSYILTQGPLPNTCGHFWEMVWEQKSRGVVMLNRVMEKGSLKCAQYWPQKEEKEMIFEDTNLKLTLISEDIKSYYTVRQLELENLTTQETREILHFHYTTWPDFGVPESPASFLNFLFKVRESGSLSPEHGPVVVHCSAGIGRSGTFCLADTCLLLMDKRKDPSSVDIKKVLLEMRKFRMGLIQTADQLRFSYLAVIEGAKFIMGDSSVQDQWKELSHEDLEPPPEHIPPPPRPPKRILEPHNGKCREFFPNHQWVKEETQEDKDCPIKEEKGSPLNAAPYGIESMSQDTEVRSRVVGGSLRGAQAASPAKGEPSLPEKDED
The experiment in a line: PTP1B inhibition, pNPP hydrolysis, long form. In kind it is biochemical. The following applies: pNPP substrate, 15 min 37 °C, pH 6.8; ± S.D. The protocol:
The inhibitory activity of PTP1B was assessed using the long form of the PTP1B enzyme (hPTP1B1–400). This enzyme comprises a highly conserved N-terminal catalytic domain, known as the PTP domain (PTP1B1–300), in addition to an intrinsically disordered regulatory domain (PTP1B301–400).
The IC50 values obtained from these tests are detailed in Table .
Aliquots of 0–10 μL of the test compounds (triplicate) were taken and incubated for 15 min at 37 °C with 85 μL of Tris buffer solution (50 mM, pH 6.8) containing PTP1B enzyme and 5 μL of p-nitrophenyl phosphate substrate (pNPP, 10 mM). The absorbance of the hydrolysis product, p-nitrophenol (pNP), was measured at 405 nm using a 96-microplate absorbance reader (Accuris SmartReader 96). The inhibitory activity was determined according to eq . %enzyme=(A405b/A405c)×100 1 Where: % enzyme is the percentage of inhibition for PTP1B or TCPTP
The IC50 was calculated using regression analysis, eq : %inhibition=A100/1+(I/IC50)^s 2 Where: A100: Maximum inhibition

The target of assay [3] is T1, hPTP1B1–400. The experiment in a line: Enzymatic kinetics studies (Lineweaver–Burk, model fitting). The note with it: for inhibition type: hPTP1B1–400, best fit model; for Ki: hPTP1B1–400, pNPP 0.1–0.5 mM; for Km / Vmax: hPTP1B1–400 with inhibitor. It is filed as biochemical. On the procedure:
Kinetic analyses were conducted using varying concentrations of substrate and inhibitor.
Five increasing concentrations of each inhibitor were tested, according to their previously determined IC50 values. The negative control was prepared by omitting the inhibitor in the presence of the enzyme and substrate. The Supporting Information includes detailed eqs (E1–E5) used to determine the kinetic parameters and mechanisms involved in PTP1B inhibition.
Equation 1 was used to obtain enzyme kinetic parameters by fitting data to the Michaelis-Menten model (Origin Pro
The equations defined for the following non-linear inhibition models were used to determine the mechanism of
PTP1B inhibition: competitive (E2), non-competitive (E3), uncompetitive (E4), and mixed (E5) (Origin Pro 2018 (64
(1+ ( ))(x05nh ) + (1+ ( )) (x05 nh)
Vmax is the maximum velocity, x is the substrate concentration, i is the inhibitor concentration, nh is the number of
Hill. Ki is the inhibition constant, and Km is the Michaelis constant.

Consider `CC1(C)[C@@H](O)CC[C@]2(C)[C@H]3C(=O)C=C4[C@@H]5C[C@@](C)(C(=O)O)CC[C@]5(C)CC[C@@]4(C)[C@]3(C)CC[C@@H]12` [GA, Glycyrrhetinic acid, reference compound], for which the “glycemia variation in ITT” value in assay [1] was “markedly decrease glycemia variation”.
Broadly, the IC50 is the concentration needed to halve the response being measured. A lower IC50 goes with inhibition by little substance. For orientation: Ki means a measure of affinity in units of concentration, obtained from inhibition or displacement. Low readings indicate a stronger hold on the target, high ones a looser hold on the target. In general, Km refers to the concentration of substrate that gives half-maximal velocity. Usually Vmax stands for the top rate of the reaction or transport when substrate is in excess. On hPTP1B1–400 [2], `CC1(C)c2[nH]c3ccc(OC(F)(F)F)cc3c2C[C@]2(C)[C@H]3C(=O)C=C4[C@@H]5C[C@@](C)(C(=O)O)CC[C@]5(C)CC[C@@]4(C)[C@]3(C)CC[C@@H]12` [compound 4a, (20β)-5′-(Trifluoromethoxy)-11-oxo-1′H-oleana-2,12-dieno[3,2-b]indol-29-oic Acid] registered an IC50 of 2.13 ± 0.13 µM. For the same compound, at hPTP1B1–400 [3], the inhibition type entry is on record as “uncompetitive”, the affinity corresponds to a Ki of 0.74 ± 0.1 µM, the Km stood at 1840 ± 190 µM and the Vmax is reported as 1.06 ± 0.24 mM/min.
With `CC1(C)c2[nH]c3ccc(SC(F)(F)F)cc3c2C[C@]2(C)[C@H]3C(=O)C=C4[C@@H]5C[C@@](C)(C(=O)O)CC[C@]5(C)CC[C@@]4(C)[C@]3(C)CC[C@@H]12` [compound 4c, (20β)-5′-(Trifluormethylthio)-11-oxo-1′H-oleana-2,12-dieno[3,2-b]indol-29-oic Acid], on hPTP1B1–400 [2], the IC50 came to 5.6 ± 0.12 µM.
The same measure, in the same setting: with `CC1(C)c2[nH]c3ccc(C#N)cc3c2C[C@]2(C)[C@H]3C(=O)C=C4[C@@H]5C[C@@](C)(C(=O)O)CC[C@]5(C)CC[C@@]4(C)[C@]3(C)CC[C@@H]12` [compound 4d, (20β)-5′-Cyano-11-oxo-1′H-oleana-2,12-dieno[3,2-b]indol-29-oic Acid] the figure was 22.4 ± 0.53 µM.
With `CC1(C)c2[nH]c3ccc(C(=O)O)cc3c2C[C@]2(C)[C@H]3C(=O)C=C4[C@@H]5C[C@@](C)(C(=O)O)CC[C@]5(C)CC[C@@]4(C)[C@]3(C)CC[C@@H]12` [compound 4e, (20β)-5′-Carboxy-11-oxo-1′H-oleana-2,12-dieno[3,2-b]indol-29-oic Acid], at hPTP1B1–400 [2], the IC50 came out at 4.33 ± 0.58 µM. Further, at hPTP1B1–400 [3], the inhibition type result is given as “uncompetitive”, the Ki was found to be 4.05 ± 0.67 µM, the Km came to 990 ± 190 µM and the Vmax was determined as 1.64 ± 0.23 mM/min.
As to `CC1(C)c2[nH]c3ccc(C(N)=O)cc3c2C[C@]2(C)[C@H]3C(=O)C=C4[C@@H]5C[C@@](C)(C(=O)O)CC[C@]5(C)CC[C@@]4(C)[C@]3(C)CC[C@@H]12` [compound 4f, (20β)-5′-Carbamoyl-11-oxo-1′H-oleana-2,12-dieno[3,2-b]indol-29-oic Acid], the IC50 on hPTP1B1–400 [2] came to 9.3 ± 0.25 µM.
On the same count and under the same terms, the value for `CC1(C)c2c(cnn2-c2ccc(OC(F)(F)F)cc2)C[C@]2(C)[C@H]3C(=O)C=C4[C@@H]5C[C@@](C)(C(=O)O)CC[C@]5(C)CC[C@@]4(C)[C@]3(C)CC[C@@H]12` [compound 5a, (20β)-11-Oxo-2′-[4-(trifluoromethoxy)phenyl]-2′H-oleana-2,12-dieno[3,2-c]pyrazol-29-oic acid] was 2.29 ± 0.15 µM.
On the same count and under the same terms, with `CC1(C)c2c(cnn2-c2ccc(OC(F)F)cc2)C[C@]2(C)[C@H]3C(=O)C=C4[C@@H]5C[C@@](C)(C(=O)O)CC[C@]5(C)CC[C@@]4(C)[C@]3(C)CC[C@@H]12` [compound 5b, (20β)-2′-[4-(Difluoromethoxy)phenyl]-11-Oxo-2′H-oleana-2,12-dieno[3,2-c]pyrazol-29-oic Acid] the figure was 6.19 ± 0.58 µM; with `CC1(C)c2c(cnn2-c2ccc(SC(F)(F)F)cc2)C[C@]2(C)[C@H]3C(=O)C=C4[C@@H]5C[C@@](C)(C(=O)O)CC[C@]5(C)CC[C@@]4(C)[C@]3(C)CC[C@@H]12` [compound 5c, (20β)-11-Oxo-2′-[4-(trifluoromethylthio)phenyl]-2′H-oleana-2,12-dieno[3,2-c]pyrazol-29-oic Acid], 2.08 ± 0.04 µM.
The same measure, in the same setting: the value for `CC1(C)c2c(cnn2-c2ccc(C#N)cc2)C[C@]2(C)[C@H]3C(=O)C=C4[C@@H]5C[C@@](C)(C(=O)O)CC[C@]5(C)CC[C@@]4(C)[C@]3(C)CC[C@@H]12` [compound 5d, (20β)-2′-(4-Cyanophenyl)-11-oxo-2′H-oleana-2,12-dieno[3,2-c]pyrazol-29-oic Acid] was 6.83 ± 0.17 µM.
In turn, `CC1(C)c2c(cnn2-c2ccc(C(N)=O)cc2)C[C@]2(C)[C@H]3C(=O)C=C4[C@@H]5C[C@@](C)(C(=O)O)CC[C@]5(C)CC[C@@]4(C)[C@]3(C)CC[C@@H]12` [compound 5f, (20β)-2′-(4-Carbamoylphenyl)-11-oxo-2′H-oleana-2,12-dieno[3,2-c]pyrazol-29-oic Acid] displayed a half-maximal inhibitory concentration (IC50) against hPTP1B1–400 [2] of 10.3 ± 0.51 µM. Compared with the last compound, the IC50 is about 1.5-fold higher.
